A short description of data set [1]: Dose finding: lethal toxicity and MTD. It is filed as in vivo, mice. Particulars: female, nude, mouse, in vivo, maximum dose causing 0% death, read-out: MTD (total dose). As to the method:
(§1) Dose finding. In order to use optimal therapeutic dose, the lethal toxicity and MTD for intratracheal injection (mimicking aerosol, IT) and intravenous injection (mimicking current most frequently used intravenous infusion and injection, IV) routes were determined in mice before the therapeutic experiment. Briefly, the nude mice (female, 6 weeks age) were inoculated with 4×10^6H460 cells intratracheally. One week later, they were randomly divided into several groups with 5 mice in each. Different groups of mice received different doses of IT 5Aza (range from 2.5 to 50 mg/kg qod×3) or IV 5Aza (range from 6.25 to 50 mg/k daily×6). The percentage of moribund mice in each group versus dose was used to simulate the dose response curves and determined the MTD. The maximum dose caused 0% death was defined as MTD. Under these experimental conditions, the MTD for both IT and IV 5Aza was 37.5 mg/kg or 112.5 mg/m^2 (total dose, FIG. 5-1). In considering the cytotoxicity results and the aerosol efficiency, 20% of IT MTD and 100% of IV MTD were used for the therapeutic studies.

The test system of data set [2] is nude mice inoculated with H460 cells intratracheally. The experiment in a line: Dose finding: lethal toxicity and MTD. The class given is in vivo. Particulars: maximum dose causing 0% death. As to the method:
as §1

A further data set is described as follows: in vivo. Particulars: ICR, mouse, in vivo, iv. As for the experimental part: (§2) Acute toxicity. The dose limiting toxicity of intravenous 5-azacytidine or decitabine is severe myelosuppression. In order to test whether aerosol or intratracheal injection can reduce the myelotoxicity or alter the toxicity profile, a dose of 90 mg/kg, the maximum tolerated dose (MTD) for intravenous injection (IV) of 5-azacytidine, was used to treat ICR mice by intravenous injection to mimic current therapy. The same dose of intratracheal injection (IT) of 5-azacytidine was used to mimic aerosol administration (35). Complete blood count (CBC), creatinine, liver function tests, and pathological evaluation of H/E staining of lungs, kidney and liver were performed to assess for toxicity differences.

Another data set concerns ICR mice. The experiment in a line: in vivo. As for the experimental part:
as §2

The next data set relates to lung cancer patients. Particulars: intravenous or subcutaneous, not aerosol; one of the largest studies; transient; cited from earlier work.
For data set [3], the system named is orthotopic H358 NSCLC model in nude mice. Briefly: Antitumor efficacy, orthotopic H358 NSCLC xenograft. It is filed as in vivo. As to the method: (§3) Antitumor efficacy. In order to evaluate the antitumor efficacy of the airway administered demethylating agent and to compare the result with systemic treatment, orthotopic human NSCLC xenograft models in nude mice were developed by inoculating the tumor cells in the respiratory airway (35,36). In the first experiment, the mice bearing lung tumors were randomly divided into 3 groups with 5 mice in each. Ten days after the H460 tumor inoculation, one group of mice were treated with intratracheal injection of 2.5 mg/kg of 5-azacytidine every other day for 3 injections, another group of mice were treated with IV injections of 6.25 mg/kg every day for 6 injections via tail vein, and the last group of mice remained untreated. […] The median survival is 50, 80 and >109 days for no treatment, IV 5Aza, and IT 5Aza group, respectively (FIG. 5-2). The similar results were obtained from another experiment using an orthotopic H358 NSCLC model. In the second experiment, the treatment schedules and doses were the same as the first experiment. The median survival is 60, 73, and 98 days for no treatment, IV 5Aza, and IT 5Aza group, respectively (FIG. 5-3). In both experiments, the differences between IT 5Aza and IV 5Aza are statistically significant (p<0.01).

In data set [4] the test system is Human NSCLC cell lines H358, H460, and A549. Briefly: Cytotoxicity by MTT assay. It is filed as cell-based. Particulars: 72 h, 3 days exposure, range over the cell lines, read-out: IC50 (concentration inhibiting 50 percent cell growth). As for the experimental part:
Cytotoxicity of 5-azacytidine. Human NSCLC cell lines H358, H460, and A549 were exposed to different concentrations of 5-azacytidine in a 96-well plate for 3 days. The cytotoxicity was measured by MTT assay.
(In general: Tetrazolium dyes change colour on reduction, which living cells bring about.)

For data set [5], the system named is orthotopic human NSCLC xenograft H460 in nude mice. Briefly: Antitumor efficacy, orthotopic H460 NSCLC xenograft. The class given is in vivo. As to the method: as §3
For data set [6], the system named is DAPK and E-cadherin in human NSCLC cell lines A549 and H460. Briefly: Demethylation function: re-expression of DAPK and E-cadherin by Western blotting. The class given is cell-based. Particulars: 24 hours exposure. An excerpt:
DAPK and E-cadherin are important tumor suppressor proteins.
Background: In western blotting, separated proteins are transferred to a membrane and probed.

A short description of data set [7]: Aerodynamic size of aerosol droplets (7-Stage Cascade Impactor). Particulars: PARI compressor, LC star nebulizer, airflow 5 L/min. The class given is physicochemical. As to the method:
Aerosol equipment. A PARI personal compressor and a LC star nebulizer were used in this study. The pressure should be 20-28 psi, and the aerosol generated rate should be 0.3±0.03 ml/min. Other clinically used aerosol equipment with similar functions can be used as well.
The aerodynamic diameters of aerosol droplets of 5-azacytidine were determined with extrusion-precipitation method using a 7-Stage Cascade Impactor (In-Tox Products, Albuquerque, N. Mex.) linked to PARI's personal compressor and LC star nebulizer system. 5-azacytidine solution (4 ml) was aerosolized under the airflow rate of 5 L/min. The condensed aerosol samples were collected at 3 different periods, from 1 to 1.5 min, from 3 to 3.5 min, and from 5 to 5.5 min. Aerodynamic size and fraction of aerosol with a particular size range were measured and calculated as per manufacturer's protocol. The data was mean±SD of the aerodynamic size based on weight (bars) and cumulative weight (line) from 3 independent experiments.

The mark [8] stands for this setting: IT 2.5 mg/kg every other day for 3 injections.
Where [9] appears, read: IV 6.25 mg/kg every day for 6 injections.

Data on one compound can be found in patent publication US20100055047A1, “Methods for treating bronchial premalignancy and lung cancer” (priority 2008, published 2010).

In brackets after ≈: the same amount, converted by molar mass.

For the compound `Nc1ncn([C@@H]2O[C@H](CO)[C@@H](O)[C@H]2O)c(=O)n1` [5-azacytidine], the MTD in data set [1] (other: intratracheal injection, IT, qod×3) was determined as 37.5 mg/kg; in the data set “in vivo” it was 90 mg/kg. The MTD at 6 days in [1] (IV, daily×6) was determined as 37.5 mg/kg. For the same compound, the “MTD (total dose)” value is 112.5 mg/m^2 in data set [2] (IT, qod×3) and 112.5 mg/m^2 in data set [2] (IV, daily×6). Further, the “highest white blood cell (WBC) reduction” value in the data set with ICR mice (ICR, mouse, in vivo, iv, 90 mg/kg, 4 day) is listed as 69±8.3%; with ICR mice (IT, 90 mg/kg, day 7) it was 11±1.0%. The lung toxicity result with ICR mice (IT, 90 mg/kg) was “reversible lung toxicity that peaked on day 7, reduced on day 14”. Moreover, the “Toxicity grade of lungs” value in the data set with ICR mice (IT, Day 7) is 1-2. The “hepatic or renal toxicities” value was “no hepatic or renal toxicities” in the data set on ICR mice (mouse, in vivo, 90 mg/kg) and “no hepatic or renal toxicities” in the data set with ICR mice (mouse, in vivo, iv, 90 mg/kg). In the data set with lung cancer patients, the “partial remission in lung cancer patients” value is on record as “one of 24 lung cancer patients had a partial remission”. The median survival is listed as 98 days in [3] (setting [8]), 73 days in data set [3] (setting [9]), above 109 days in [5] (setting [8]) and 80 days in [5] (setting [9]). Further, the IC50 in data set [4] was 4 to 14 µg/mL (≈ 16.4 to 57.3 µM). Moreover, the “expressions of DAPK and E-cadherin” value in data set [6] is reported as “significantly enhanced”. In addition, the “fraction of aerosol droplets measured between 0.2~3 μm in diameter” value in data set [7] was “about 97 % (weight)”.
